One may read the inhibition as the drop in the measured response relative to a control, in per cent.

The target of assay [1] is Death-associated protein kinase 3 (Homo sapiens) (UniProt O43293). The experiment in a line: DAPK3 SGC Tm panel (DSF). The note with it: for ΔTm: Compound concentration 10.0 uM.
The target in assay [2] is T1, Serine/threonine-protein kinase 3 (Homo sapiens) (UniProt Q13188).
T1 sequence (whole entry): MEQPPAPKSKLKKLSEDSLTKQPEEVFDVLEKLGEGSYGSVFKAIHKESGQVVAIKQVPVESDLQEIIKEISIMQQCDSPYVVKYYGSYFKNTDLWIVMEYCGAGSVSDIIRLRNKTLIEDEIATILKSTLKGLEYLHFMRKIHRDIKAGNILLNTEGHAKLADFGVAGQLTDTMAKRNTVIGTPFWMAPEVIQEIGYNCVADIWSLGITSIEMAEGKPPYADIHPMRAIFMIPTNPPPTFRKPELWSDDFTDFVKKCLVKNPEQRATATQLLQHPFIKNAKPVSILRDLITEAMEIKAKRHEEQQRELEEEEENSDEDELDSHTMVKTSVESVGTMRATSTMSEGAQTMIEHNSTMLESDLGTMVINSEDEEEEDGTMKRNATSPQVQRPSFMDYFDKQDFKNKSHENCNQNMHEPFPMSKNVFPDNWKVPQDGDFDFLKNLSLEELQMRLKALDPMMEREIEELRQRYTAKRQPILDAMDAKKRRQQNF
The experiment in a line: STK3 SGC Tm panel (DSF). The note with it: for ΔTm: Compound concentration 10.0 uM.

Assay [3] concerns the target T2, 5-hydroxytryptamine receptor 2C (Homo sapiens) (UniProt P28335).
T2 sequence (whole entry): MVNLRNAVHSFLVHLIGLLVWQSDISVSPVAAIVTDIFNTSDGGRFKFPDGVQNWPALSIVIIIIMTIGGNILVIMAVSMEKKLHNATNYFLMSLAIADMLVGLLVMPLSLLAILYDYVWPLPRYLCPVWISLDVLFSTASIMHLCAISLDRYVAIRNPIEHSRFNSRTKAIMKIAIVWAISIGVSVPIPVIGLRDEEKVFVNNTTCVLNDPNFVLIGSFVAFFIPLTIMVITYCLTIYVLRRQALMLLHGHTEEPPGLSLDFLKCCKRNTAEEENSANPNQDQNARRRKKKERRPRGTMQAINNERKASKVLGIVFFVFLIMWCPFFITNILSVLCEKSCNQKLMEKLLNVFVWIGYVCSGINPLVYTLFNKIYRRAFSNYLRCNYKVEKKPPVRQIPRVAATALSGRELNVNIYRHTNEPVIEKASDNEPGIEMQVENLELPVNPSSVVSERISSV
To be noted: Compound concentration 10.0 uM.

For assay [4], the target named is T3, Mitogen-activated protein kinase kinase kinase 5 (Homo sapiens) (UniProt Q99683).
T3 sequence (whole entry): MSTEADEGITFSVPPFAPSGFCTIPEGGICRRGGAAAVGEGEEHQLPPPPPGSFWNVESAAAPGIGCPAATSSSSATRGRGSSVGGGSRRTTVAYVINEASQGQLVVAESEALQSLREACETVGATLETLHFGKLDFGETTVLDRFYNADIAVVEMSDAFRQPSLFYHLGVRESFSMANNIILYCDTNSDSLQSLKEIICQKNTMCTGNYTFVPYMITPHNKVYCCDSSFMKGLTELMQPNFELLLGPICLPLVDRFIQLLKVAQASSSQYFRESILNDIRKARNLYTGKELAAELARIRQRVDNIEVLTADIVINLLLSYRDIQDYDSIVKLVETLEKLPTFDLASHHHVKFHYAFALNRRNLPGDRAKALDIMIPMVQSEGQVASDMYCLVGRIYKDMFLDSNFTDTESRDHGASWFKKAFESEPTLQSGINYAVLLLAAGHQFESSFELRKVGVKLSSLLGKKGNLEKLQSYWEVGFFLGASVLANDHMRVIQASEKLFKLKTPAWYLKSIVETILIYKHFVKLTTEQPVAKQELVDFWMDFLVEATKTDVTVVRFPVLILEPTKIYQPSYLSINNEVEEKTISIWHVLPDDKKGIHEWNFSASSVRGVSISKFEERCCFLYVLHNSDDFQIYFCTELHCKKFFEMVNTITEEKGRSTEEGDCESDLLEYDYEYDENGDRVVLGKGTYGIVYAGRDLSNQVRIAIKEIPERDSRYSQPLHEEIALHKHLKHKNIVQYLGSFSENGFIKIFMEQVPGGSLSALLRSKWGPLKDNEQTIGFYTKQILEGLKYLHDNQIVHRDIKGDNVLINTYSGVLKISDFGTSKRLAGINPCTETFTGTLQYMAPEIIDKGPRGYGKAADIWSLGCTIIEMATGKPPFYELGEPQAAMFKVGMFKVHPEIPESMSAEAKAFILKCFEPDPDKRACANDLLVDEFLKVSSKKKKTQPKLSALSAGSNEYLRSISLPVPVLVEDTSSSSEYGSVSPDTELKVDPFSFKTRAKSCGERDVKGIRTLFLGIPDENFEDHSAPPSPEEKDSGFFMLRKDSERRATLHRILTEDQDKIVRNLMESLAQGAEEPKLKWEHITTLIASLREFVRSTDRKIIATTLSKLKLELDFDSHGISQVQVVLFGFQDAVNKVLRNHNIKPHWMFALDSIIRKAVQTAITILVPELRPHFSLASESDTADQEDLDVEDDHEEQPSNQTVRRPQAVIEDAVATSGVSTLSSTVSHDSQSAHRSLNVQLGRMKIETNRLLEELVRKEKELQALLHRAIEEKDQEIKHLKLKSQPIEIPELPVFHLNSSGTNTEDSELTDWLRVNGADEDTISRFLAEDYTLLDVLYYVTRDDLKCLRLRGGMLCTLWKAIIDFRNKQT
In words: MAP3K5 SGC Tm panel (DSF). The note with it: for ΔTm: Compound concentration 10.0 uM.

In assay [5] the target is T4, Aurora kinase A (Homo sapiens) (UniProt O14965).
T4 sequence (whole entry): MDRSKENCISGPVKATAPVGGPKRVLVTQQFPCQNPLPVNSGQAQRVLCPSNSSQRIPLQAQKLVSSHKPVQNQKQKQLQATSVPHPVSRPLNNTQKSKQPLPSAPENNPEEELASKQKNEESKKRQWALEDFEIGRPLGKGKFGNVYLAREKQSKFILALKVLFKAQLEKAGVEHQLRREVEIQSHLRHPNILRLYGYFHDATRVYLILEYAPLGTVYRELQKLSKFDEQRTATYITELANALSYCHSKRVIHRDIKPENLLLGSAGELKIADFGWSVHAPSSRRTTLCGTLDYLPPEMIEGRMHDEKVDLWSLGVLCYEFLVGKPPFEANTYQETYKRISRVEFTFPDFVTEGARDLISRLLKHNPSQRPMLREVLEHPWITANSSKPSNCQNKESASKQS
In words: STK6 SGC Tm panel (DSF). The note with it: for ΔTm: Compound concentration 10.0 uM.

Death-associated protein kinase 3 (Homo sapiens), sequence (O43293 whole entry, looked up): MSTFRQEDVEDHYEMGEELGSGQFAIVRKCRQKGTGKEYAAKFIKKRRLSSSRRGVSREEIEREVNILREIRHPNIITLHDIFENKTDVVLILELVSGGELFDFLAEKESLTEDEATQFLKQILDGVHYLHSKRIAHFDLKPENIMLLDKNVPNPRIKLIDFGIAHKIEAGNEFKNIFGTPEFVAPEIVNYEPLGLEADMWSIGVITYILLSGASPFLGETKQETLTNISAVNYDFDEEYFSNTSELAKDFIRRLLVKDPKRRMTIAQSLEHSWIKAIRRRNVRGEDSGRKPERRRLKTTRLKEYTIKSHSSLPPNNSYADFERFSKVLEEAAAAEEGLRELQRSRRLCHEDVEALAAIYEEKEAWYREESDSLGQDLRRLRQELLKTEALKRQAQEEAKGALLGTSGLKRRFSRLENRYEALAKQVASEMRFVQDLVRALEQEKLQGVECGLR

As for `CCC[C@H]1CNCc2c1[nH]c(=O)c(C#N)c2N1CCC2(CC1)CC2`, the delta Tm Staurosporine positive control is 16.6 in assay [1], 16.5 in assay [2], 17.7 in assay [4] and 20.5 in assay [5]. Also, the ΔTm in assay [1] was 0.222; in assay [2], -0.737; in assay [4] it was 0.00768; in assay [5], 0.00646. The inhibition in assay [3] is 8.81%.

`CCC[C@@H]1CNCc2c1[nH]c(=O)c(C#N)c2N1CCC2(CC1)CC2`: the delta Tm Staurosporine positive control in assay [1] stood at 16.6; in assay [2] it was 16.5; in assay [4] it was 17.7; in assay [5], 20.5. The ΔTm is 0.29 in assay [1], -0.767 in assay [2], -0.154 in assay [4] and -0.0175 in assay [5]. Besides, the inhibition in assay [3] was 9.88%.

The values are drawn from ChEMBL document CHEMBL5303765, “Data for DCP probe BAY-7081” (2023).
